Data: patent publication US8956594B2, “Fluoride-calcium compositions, dental products, and methods for providing dental fluoride” (ADA Foundation, priority 2005, dated 2015)

Settings: used in the absence of phosphate, in some trials
Source text: The anion may be any suitable stabilizing anion, by which is contemplated to be an anion the inclusion of which results in a composition that is stable for storage and transport as against precipitation of calcium fluoride, the composition not being stable (or as stable) for storage and transport as against precipitation of calcium fluoride in the absence of the anion. In some embodiments, the anion contains the O—PO—O moiety. […] Plural anions may be employed in a single composition.

O=P(O)(O)OP(=O)(O)O [pyrophosphate]
effectiveness as stabilizing anion: not to be effective
